Legend:
Type in all cases: physicochemical
[1] = Observation of the color of the crystals (Test Example 3); conditions: crystals as obtained; hydrate
Description: Observation of the color of the crystals obtained in Examples 5 and 8 and Comparative Examples 4 and 5 was made.

[2] = Color difference of the crystal before and after storage, spectrophotometric colorimeter, reflection method (Test Examples 4 and 5); conditions: Table 6, stored 2 weeks, air atmosphere, 40° C., relative humidity 75%, double polyethylene bag
Protocol: As described herein, the color difference of the crystal is measured by reflection method using a spectrocolorimeter.
About 1 g of the test material was added in a storage bag, the storage bag being prepared by inserting one polyethylene bag into another polyethylene bag, each polyethylene bag having a thickness of 0.04 mm, each of the polyethylene bags was sealed, and the test material was stored for 2 weeks in conditions of air atmosphere at a temperature of 40° C. and a relative humidity of 75%. Color change of the crystal before and after the test was evaluated based on color difference.
(§1) Measurement method: Reflection method

[3] = Storage stability test under high temperature and high humidity conditions (Test Example 1); conditions: about 0.2 g in glass vial, one week, 60° C., relative humidity 75%; compared to Comparative Example 1
Protocol: Storage stability test under high temperature and high humidity conditions
As a test material, the crystals obtained from Example 3 and Comparative Example 1 were selected.
Each of the test material (about 0.2 g) was added to a glass vial and stored for one week under the conditions including temperature of 60° C. and relative humidity of 75%.
State of the crystal of Example 3 before starting the test is illustrated in FIG. 4 and state of the crystal of Example 3 after finishing the test is illustrated in FIG. 5. Further, state of the crystal of Comparative Example 1 before starting the test is illustrated in FIG. 6 and state of the crystal of Comparative Example 1 after finishing the test is illustrated in FIG. 7.

[4] = Hue (H) in the Munsell color system of the crystals (Test Example 6); conditions: reflection method, crystals as obtained, hydrate
Description: The Munsell color system is the color system developed by Albert H. Munsell. In the system, color is defined in terms of three attributions, hue, brightness and chroma. Hue (H) represents kinds of colors and, in the Munsell color system, hue is defined by using a total of 10 hues including 5 fundamental hues of red (R), yellow (Y), green (G), blue (B) and purple (P) and 5 intermediate hues of yellow-red (YR), yellow-green (YG), blue-green (BG), blue-purple (BP) and red-purple (RP). In addition, each hue of the 10 hues is further defined by using uniform color scales so that the maximum classification is 10. Hue (H) can be measured by using a measuring device such as a colorimeter or a color-difference meter.
Hue (H) in the Munsell color system of the crystals of Examples 9, 11 to 14 was observed.
Colorimeter: Spectrophotometric colorimeter SE 2000, manufactured by NIPPON DENSHOKU […] CO., LTD.
as §1

[5] = Naked-eye observation of coloration after storage at 60° C. and 75% relative humidity; conditions: stored 2 weeks, relative humidity 75%
Protocol: Compound of Example 9 after it has been stored for 2 weeks under the condition including a temperature of 60° C. and a relative humidity of 75% is illustrated in FIG. 11.

NC(=O)c1nc[nH]c1O [Comparative Example 4, 5-hydroxy-1H-imidazole-4-carboxamide.3/4 hydrate]
Color of crystals [1]: Blue

NC(=O)c1nc[nH]c1O [Comparative Example 5, 5-hydroxy-1H-imidazole-4-carboxamide.3/4 hydrate]
Color of crystals [1]: Blue

NC(=O)c1nc[nH]c1O [Comparative Example 6, 5-hydroxy-1H-imidazole-4-carboxamide]
Color difference (ΔE) [2]: 25.6

NC(=O)c1nc[nH]c1O [Comparative Example 7, 5-hydroxy-1H-imidazole-4-carboxamide.3/4 hydrate, reference compound]
Color difference (ΔE) ([2]; hydrate): 8.8

NC(=O)c1nc[nH]c1O.O [Example 3, 5-hydroxy-1H-imidazole-4-carboxamide hydrate]
Coloration and storage stability of the crystal [3]: clearly less coloration and better storage stability

NC(=O)c1nc[nH]c1O [Example 5, 5-hydroxy-1H-imidazole-4-carboxamide.3/4 hydrate]
Color of crystals [1]: Pale yellow

NC(=O)c1nc[nH]c1O [Example 9, 5-hydroxy-1H-imidazole-4-carboxamide.3/4 hydrate]
Color difference (ΔE) ([2]; hydrate): 2.4
Hue (H) [4]: 3.1Y
Coloration observed with a naked eye after storage [5]: no coloration with blue color

NC(=O)c1nc[nH]c1O [Example 11, 5-hydroxy-1H-imidazole-4-carboxamide-3/4 hydrate]
Hue (H) [4]: 3.8Y

NC(=O)c1nc[nH]c1O [Example 12, 5-hydroxy-1H-imidazole-4-carboxamide.3/4 hydrate]
Hue (H) [4]: 4.4Y

NC(=O)c1nc[nH]c1O [Example 13, 5-hydroxy-1H-imidazole-4-carboxamide.3/4 hydrate]
Color difference (ΔE) ([2]; hydrate): 5.1
Hue (H) [4]: 5.9Y

NC(=O)c1nc[nH]c1O [Example 14, 5-hydroxy-1H-imidazole-4-carboxamide.3/4 hydrate]
Hue (H) [4]: 5.9Y
